We go through three substances from PMC6512958 (Hypertension (Dallas, Tex. : 1979), 2019).

One data set has as its system human MasR. In words: cAMP production in HEK293 cells overexpressing human MasR. Format: cell-based. The note with it: 10^-7, 10^-6 and 10^-5 M, 10 min; RIA; vs no treatment; Figure 2B.
For a further data set, the system named is normal canines. Type of data set: in vivo, male mongrel dogs. The note with it: IV infusion 8.66 pmol/kg/min.
The subject of data set [1] is diabetic mice and rats overexpressing the mouse Ren2-gene. The note with it: long-term treatment, cited from earlier work.
For the next data set, the system named is rodents. The note with it: ANG1-7/MasR, rodents / diet-induced obesity; cited from earlier work.
For data set [2] the following is noted: cited from earlier work.
In another data set the test system is human pGC-A. Put plainly: cGMP production in HEK293 cells overexpressing human pGC-A. Type of data set: cell-based. As to conditions: 10^-10, 10^-8 and 10^-6 M, 10 min; RIA; vs no treatment; Figure 2A.
The subject of the next data set is humans with stable HF. As to conditions: chronic subcutaneous BNP, human HF; cited from earlier work.
The test system of another data set is HTN. As to conditions: cited from earlier work.

Regarding Angiotensin 1-7 [ANG1–7], the “cAMP production (MasR activation)” value in the data set with human MasR is on record as “significantly increasing concentrations of cAMP production”. Further, the “reduction in MAP compared with BNP and NPA7” value with normal canines (Figure 4A) is listed as “modest”. Moreover, the “mean arterial pressure (MAP), during drug infusion” value in the data set on normal canines (n=5 (ANG1-7), Figure 4A) is on record as “did not reduce MAP”. Moreover, the “cardiomyocyte hypertrophy, apoptosis and fibrosis” value in data set [1] (diabetic mice and rats overexpressing the mouse Ren2-gene) is “prevented”. Further, the “cardiac function in diabetic mice” value in data set [1] is “significantly improved”. For the same substance, the “obesity-induced HTN and brown adipocyte differentiation” value in the data set on rodents was “protection from obesity-induced HTN in rodents and induction of brown adipocyte differentiation”. In data set [2], the half-life time result was “extremely short” and the in vivo degradation result was “rapid in vivo degradation”.

Regarding B-type natriuretic peptide [BNP], the “cGMP production (pGC-A activation)” value in the data set with human pGC-A was “significantly increasing concentrations of cGMP production”. Further, the “mean arterial pressure (MAP)” value in the data set on normal canines (BNP n=5, NPA7 n=6, Figure 4A) is on record as “reduced MAP significantly”. The “symptoms and myocardial structure and function” value in the data set on humans with stable HF is “improved symptoms and myocardial structure and function”.

In the case of sacubitril/valsartan, the “efficacy in HTN” value in the data set on HTN is “demonstrated efficacy in HTN”.
